Legend:
Type in all cases: in vivo
[1] = system: soybean cv. Williams (not GM); experiment: Crop tolerance test (germination after seed treatment), cv. Williams
Description: (§1) Fifty soybean seeds of cv. S-40-R9 (RR-soybean) or cv. Williams (not GM) are sown 2 cm deep into trays filled with quarz sand. Seeds are treated prior to sowing with the formulated ais. The plants are grown at 20-23° C. in a greenhouse. If necessary, artificial lighting is supplied to give a 14 hr day.
(§2) Plant emergence 6 DAS and final stand 11 DAS is counted.

[2] = system: soybean cv. S-40-R9 (RR-soybean); experiment: Crop tolerance test (germination after seed treatment), cv. S-40-R9
Description: as §1, §2

Phakopsora pachyrhizi [3] = experiment: Test for rust activity, leaf discs from seed-treated plants, cv. Williams; settings: 11 DAI
Description: as §1
(§3) For the soybean rust assay, plants are transplanted 13 DAS into 8 cm pots filled with soil. 13 days after transplanting leaf discs are cut from the first and second true leaves and transferred to multiwell plates filled with water agar. 1 day later the leaf discs are inoculated with Phakopsora pachyrhizi. Assessment of the disease incidence is done 11 DAI (days after inoculation).

Phakopsora pachyrhizi [4] = experiment: Test for rust activity, leaf discs from seed-treated plants, cv. S-40-R9; settings: 11 DAI
Description: as §1, §3

[5] = GA seed treatment 1 g ai/100 kg, cv. Williams, fifty seeds sown
[6] = GA seed treatment 2 g ai/100 kg, cv. Williams, fifty seeds sown
[7] = GA seed treatment 1 g ai/100 kg, cv. S-40-R9, fifty seeds sown
[8] = GA seed treatment 2 g ai/100 kg, cv. S-40-R9, fifty seeds sown
[9] = GA seed treatment 1 g ai/100 kg
[10] = GA seed treatment 2 g ai/100 kg

Q: Which results are given for `C=C1C[C@]23C[C@@]1(O)CC[C@H]2[C@@]12C=C[C@H](O)[C@@](C)(C(=O)O1)[C@H]2[C@@H]3C(=O)O` [Gibberelic acid (GA), gibberellic acid (gibberellin A3)]?
A: Germination % Emergence 6 DAS [1, 5]: 100%; Germination % Final Stand 11 DAS [1, 5]: 100%; Germination Count 6 DAS [1, 5]: 50; Germination Count 11 DAS [1, 5]: 50; Germination % Emergence 6 DAS [1, 6]: 98%; Germination % Final Stand 11 DAS [1, 6]: 98%; Germination Count 6 DAS [1, 6]: 49; Germination Count 11 DAS [1, 6]: 49; Germination % Emergence 6 DAS [2, 7]: 100%; Germination % Final Stand 11 DAS [2, 7]: 100%; Germination Count 6 DAS [2, 7]: 50; Germination Count 11 DAS [2, 7]: 50; Germination % Emergence 6 DAS [2, 8]: 96%; Germination % Final Stand 11 DAS [2, 8]: 96%; Germination Count 6 DAS [2, 8]: 48; Germination Count 11 DAS [2, 8]: 48; 1st Leaf % Activity (Phakopsora pachyrhizi [3]; [9]): 0.0%; 1st Leaf % Disease (Phakopsora pachyrhizi [3]; [9]): 88.9%; 2nd Leaf % Activity (Phakopsora pachyrhizi [3]; [9]): 32.4%; 2nd Leaf % Disease (Phakopsora pachyrhizi [3]; [9]): 48.3%; 1st Leaf % Activity (Phakopsora pachyrhizi [3]; [10]): 0.0%; 1st Leaf % Disease (Phakopsora pachyrhizi [3]; [10]): 87.2%; 2nd Leaf % Activity (Phakopsora pachyrhizi [3]; [10]): 28.4%; 2nd Leaf % Disease (Phakopsora pachyrhizi [3]; [10]): 51.1%; 1st Leaf % Activity (Phakopsora pachyrhizi [4]; [9]): 0.0%; 1st Leaf % Disease (Phakopsora pachyrhizi [4]; [9]): 87.8%; 2nd Leaf % Activity (Phakopsora pachyrhizi [4]; [9]): 0.0%; 2nd Leaf % Disease (Phakopsora pachyrhizi [4]; [9]): 71.1%; 1st Leaf % Activity (Phakopsora pachyrhizi [4]; [10]): 0.0%; 1st Leaf % Disease (Phakopsora pachyrhizi [4]; [10]): 82.8%; 2nd Leaf % Activity (Phakopsora pachyrhizi [4]; [10]): 0.0%; 2nd Leaf % Disease (Phakopsora pachyrhizi [4]; [10]): 68.9%

Q: Which results are given for `CC(C1CC1)C(O)(Cn1cncn1)c1ccc(Cl)cc1` (stereo not shown) [Cyproconazole (CCZ), cyproconazole]?
A: Germination % Emergence 6 DAS ([1]; in vivo): 0%; Germination Count 6 DAS ([1]; in vivo): 0; Effect on plant numbers and size (phytotoxicity) ([2]; in vivo): severe reductions in plant numbers and size; Germination % Emergence 6 DAS ([2]; in vivo): 0%; Germination Count 6 DAS ([2]; in vivo): 0

Reference: patent US8440590B2, “Method for controlling soybean rust” (priority 2006, dated 2013)
